The text below walks through data of patent US9403801B2 (Calitor Sciences, LLC, priority 2014, dated 2016).

Data set [1] in a line: Compound stability in rat liver microsomes. The class given is in vitro ADME. In outline:
(§1)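 LC/MS/MS read-out of parent remaining, as % of t=0, after 0, 5, 10, 15, 30 and 60 min at 37° C. Mix: microsomes 0.5 mg/mL, test compound 5 μM, NADPH 1.0 mM, phosphate pH 7.4. Denatured microsomes served as negative control. In vivo CLint extrapolated.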

For a further data set, the target named is JAK1 (h) (Homo sapiens (Human), UniProt P23458). In words: JAK1 kinase assay (33P-ATP filter binding, Millipore). The class given is biochemical. A digest of the protocol: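 Radiometric assay of γ-33P-ATP incorporation into plate-immobilised MBP; kinase buffer pH 7.6 with 10 mM MgCl2, 10 μM unlabelled ATP typical, enzyme 10 or 20 nM final, 1% DMSO. Reactions ran 1 h at room temperature before scintillation counting. IC50 from 10-point half-log dilution curve, duplicates.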
Sequence of JAK1 (h) (P23458 whole entry): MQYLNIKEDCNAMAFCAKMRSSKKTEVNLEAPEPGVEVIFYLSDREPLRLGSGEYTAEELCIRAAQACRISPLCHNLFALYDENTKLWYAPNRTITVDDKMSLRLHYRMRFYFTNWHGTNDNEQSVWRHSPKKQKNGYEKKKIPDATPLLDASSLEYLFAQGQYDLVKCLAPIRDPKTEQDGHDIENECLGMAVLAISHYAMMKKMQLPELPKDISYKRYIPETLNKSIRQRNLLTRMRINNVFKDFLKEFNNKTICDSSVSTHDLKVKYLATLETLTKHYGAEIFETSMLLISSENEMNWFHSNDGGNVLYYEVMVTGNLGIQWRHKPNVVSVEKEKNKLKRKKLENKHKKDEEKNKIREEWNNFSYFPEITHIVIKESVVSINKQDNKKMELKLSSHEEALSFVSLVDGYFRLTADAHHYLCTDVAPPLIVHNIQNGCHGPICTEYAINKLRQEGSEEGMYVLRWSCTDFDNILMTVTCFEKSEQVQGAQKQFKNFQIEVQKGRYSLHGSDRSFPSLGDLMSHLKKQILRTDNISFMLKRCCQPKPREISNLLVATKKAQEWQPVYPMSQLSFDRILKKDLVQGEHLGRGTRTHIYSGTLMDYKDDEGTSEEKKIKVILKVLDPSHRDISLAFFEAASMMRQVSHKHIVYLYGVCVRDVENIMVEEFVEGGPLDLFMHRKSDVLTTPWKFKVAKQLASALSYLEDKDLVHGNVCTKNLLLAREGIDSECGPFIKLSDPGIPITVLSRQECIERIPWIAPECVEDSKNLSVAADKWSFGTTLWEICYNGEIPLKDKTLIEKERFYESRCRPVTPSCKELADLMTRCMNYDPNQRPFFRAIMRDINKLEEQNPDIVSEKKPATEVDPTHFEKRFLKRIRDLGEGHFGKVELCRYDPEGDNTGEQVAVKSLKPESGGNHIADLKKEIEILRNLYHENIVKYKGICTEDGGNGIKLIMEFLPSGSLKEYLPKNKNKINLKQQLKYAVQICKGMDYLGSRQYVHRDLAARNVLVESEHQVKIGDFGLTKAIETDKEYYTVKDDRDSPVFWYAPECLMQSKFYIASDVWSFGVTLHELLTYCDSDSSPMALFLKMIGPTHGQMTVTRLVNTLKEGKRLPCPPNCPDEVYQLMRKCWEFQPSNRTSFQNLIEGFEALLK

Data set [2] can be described thus: Compound stability in human liver microsomes. The class given is in vitro ADME. In outline:
as §1

For a further data set, the target named is JAK2 (h) (Homo sapiens (Human), UniProt O60674). As to the kind of experiment: JAK2 kinase assay (33P-ATP filter binding, Millipore). The class given is biochemical. How it is done:
Kinase assays can be performed by measurement of incorporation of γ-^33P ATP into immobilized myelin basic protein (MBP). High binding white 384 well plates (Greiner) are coated with MBP (Sigma #M−1891) by incubation of 60 μL/well of 20 μg/mL MBP in Tris-buffered saline (TBS; 50 mM Tris pH 8.0, 138 mM NaCl, 2.7 mM KCl) for 24 h at 4° C. Plates are washed 3× with 100 μL TBS. Kinase reactions are carried out in a total volume of 34 μL in kinase buffer (5 mM Hepes pH 7.6, 15 mM NaCl, 0.01% bovine gamma globulin (Sigma #I-5506), 10 mM MgCl2, 1 mM DTT, 0.02% TritonX-100). Compound dilutions are performed in DMSO and added to assay wells to a final DMSO concentration of 1%. Each data point is measured in duplicate, and at least two duplicate assays are performed for each individual compound determination. Enzyme is added to final concentrations of 10 nM or 20 nM, for example. A mixture of unlabeled ATP and γ-^33P ATP is added to start the reaction (2×10^6 cpm of γ-^33P ATP per well (3000 Ci/mmole) and 10 μM unlabeled ATP, typically. The reactions are carried out for 1 h at room temperature with shaking. Plates are washed 7× with TBS, followed by the addition of 50 μL/well scintillation fluid (Wallac). Plates are read using a Wallac Trilux counter. This is only one format of such assays; various other formats are possible, as known to one skilled in the art.
The above assay procedure can be used to determine the IC50 for inhibition and/or the inhibition constant, Ki. The IC50 is defined as the concentration of compound required to reduce the enzyme activity by 50% under the condition of the assay. The IC50 value is estimated by preparing a 10 point curve using a 1/2 log dilution series (for example, a typical curve may be prepared using the following compound concentrations: 3 μM, 1 μM, 0.3 μM, 0.1 μM, 0.03 μM, 0.01 μM, 0.003 μM, 0.001 μM, 0.0003 μM and 0 μM).
The kinase assays described herein were performed at Millipore UK Ltd, Dundee Technology Park, Dundee DD2 1SW, UK.

Data set [3] can be described thus: Pharmacokinetics after intravenous and oral administration in rats. The class given is in vivo. The following applies: for Clearance (CL) after iv dosing / AUC(0-t) / half-life / Vd: dose 1 mg/kg (Ex. 27: 0.72 mg/kg), iv dosing; for F: oral bioavailability; for AUC(0-t) / half-life / Vd: rat, plasma; for Vd: read-out: Vss. In outline:
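Rats were dosed 1 or 2 mg/kg IV or 5 or 10 mg/kg orally, as water solution, HPMC/Tween 80, DMSO/saline, MC suspension or capsule. Plasma was sampled from 0.083 or 0.25 h up to 24 h and quantified by LC/MS/MS in MRM mode with ESI.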

[4] abbreviates: rat, liver microsomes, pH 7.4, Rat liver microsomes 0.5 mg protein/mL, compound 5 μM, NADPH 1.0 mM, 37° C.
Where [5] appears, read: rat, liver microsomes, pH 7.4, Rat liver microsomes, in vivo CLint extrapolated.
[6] abbreviates: human, liver microsomes, pH 7.4, Human liver microsomes 0.5 mg protein/mL, compound 5 μM, NADPH 1.0 mM, 37° C.
Where [7] appears, read: human, liver microsomes, pH 7.4, Human liver microsomes, in vivo CLint extrapolated.
Setting [8] is: pH 7.4, Rat liver microsomes 0.5 mg protein/mL, compound 5 μM, NADPH 1.0 mM, 37° C.
Where [9] appears, read: pH 7.4, Rat liver microsomes, in vivo CLint extrapolated.
Setting [10] is: pH 7.4, Human liver microsomes 0.5 mg protein/mL, compound 5 μM, NADPH 1.0 mM, 37° C.
Where [11] appears, read: pH 7.4, Human liver microsomes, in vivo CLint extrapolated.

The structures appear in SMILES notation.

Sequence of JAK2 (h) (O60674 whole entry): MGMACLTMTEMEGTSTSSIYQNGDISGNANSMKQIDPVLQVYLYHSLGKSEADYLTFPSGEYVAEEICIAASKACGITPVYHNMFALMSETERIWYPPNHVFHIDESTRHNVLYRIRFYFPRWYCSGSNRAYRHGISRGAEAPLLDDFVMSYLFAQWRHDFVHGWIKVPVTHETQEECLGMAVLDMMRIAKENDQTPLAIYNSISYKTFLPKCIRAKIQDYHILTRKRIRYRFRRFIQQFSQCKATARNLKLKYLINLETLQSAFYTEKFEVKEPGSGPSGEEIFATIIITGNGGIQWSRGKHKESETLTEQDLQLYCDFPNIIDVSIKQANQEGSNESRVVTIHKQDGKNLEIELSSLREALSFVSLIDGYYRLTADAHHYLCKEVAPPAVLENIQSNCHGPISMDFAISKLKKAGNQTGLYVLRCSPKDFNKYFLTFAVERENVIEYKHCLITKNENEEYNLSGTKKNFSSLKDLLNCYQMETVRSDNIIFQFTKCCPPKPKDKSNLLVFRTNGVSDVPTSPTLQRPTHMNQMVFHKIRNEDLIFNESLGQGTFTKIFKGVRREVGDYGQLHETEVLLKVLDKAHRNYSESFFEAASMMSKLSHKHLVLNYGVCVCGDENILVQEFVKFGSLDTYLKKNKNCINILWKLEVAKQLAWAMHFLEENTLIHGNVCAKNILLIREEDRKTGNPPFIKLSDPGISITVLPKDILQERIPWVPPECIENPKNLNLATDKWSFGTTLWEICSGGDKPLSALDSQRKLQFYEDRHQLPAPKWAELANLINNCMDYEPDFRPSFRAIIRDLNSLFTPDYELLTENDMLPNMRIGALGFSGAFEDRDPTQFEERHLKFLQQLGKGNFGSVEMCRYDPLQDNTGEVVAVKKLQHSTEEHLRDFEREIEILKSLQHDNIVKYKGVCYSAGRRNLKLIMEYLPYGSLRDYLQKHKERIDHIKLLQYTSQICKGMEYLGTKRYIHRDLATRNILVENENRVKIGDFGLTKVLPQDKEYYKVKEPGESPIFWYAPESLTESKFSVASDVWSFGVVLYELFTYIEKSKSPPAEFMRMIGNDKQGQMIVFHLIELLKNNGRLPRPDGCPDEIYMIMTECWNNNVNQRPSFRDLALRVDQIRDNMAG

As to `Cc1cnc(Nc2cnn(C)c2)nc1NC1CCC2(CC1)CCN(C(=O)CC#N)C2` (stereo not shown) [Ex. 10, 3-(8-((5-methyl-2-((1-methyl-1H-pyrazol-4-yl)amino)pyrimidin-4-yl)amino)-2-azaspiro[4.5]decan-2-yl)-3-oxopropanenitrile], the half-life at 5 μM in data set [1] (setting [4]) is 52.6 min; in data set [2] (setting [6]) it was 1510 min. In addition, the CLint scaled at 5 μM in data set [1] (setting [5]) is 47.2 mL/min/kg; in data set [2] (setting [7]), 1.15 mL/min/kg. In addition, the results for the IC50 at JAK1 (h) and on JAK2 (h) were 7 nM and 129 nM, respectively.

In the case of `Cn1cc(Nc2ncc(Cl)c(NC3CCC4(CC3)CCN(C(=O)CC#N)C4)n2)cn1` (single isomer, unassigned) [Ex. 14B, 3-(8-((5-chloro-2-((1-methyl-1H-pyrazol-4-yl)amino)pyrimidin-4-yl)amino)-2-azaspiro[4.5]decan-2-yl)-3-oxopropanenitrile], the T1/2 in data set [1] (Rat liver microsomes 0.5 mg protein/mL, compound 5 μM, NADPH 1.0 mM, 37° C.) is reported as 71.63 min. For the same compound, the CLint in data set [1] (Rat liver microsomes, in vivo CLint extrapolated) is 34.67 mL/min/kg. Also, the IC50 at JAK1 (h) is 2 nM. In data set [2] (Human liver microsomes 0.5 mg protein/mL, compound 5 μM, NADPH 1.0 mM, 37° C.), this compound returned a T1/2 of 171.8 min. For the same compound, in data set [2] (Human liver microsomes, in vivo CLint extrapolated), the CLint is on record as 10.12 mL/min/kg. For the same compound, the IC50 on JAK2 (h) amounted to 15 nM. Also, in data set [3], the “Clearance (CL) after iv dosing” value amounted to 86.8 mL/min/kg, the F stood at 12.7%, the exposure AUC(0-t) turned out to be 193 ng·h/mL and the half-life was 29.4 min. In addition, in data set [3], the Vd came to 2.41 L/kg.

In data set [1] (setting [4]), `Cn1cc(Nc2ncc(Cl)c(NC3CCC4(CC3)CCN(S(C)(=O)=O)CC4)n2)cn1` [Ex. 29, 5-chloro-N^2-(1-methyl-1H-pyrazol-4-yl)-N^4-(3-(methylsulfonyl)-3-azaspiro[5.5]undecan-9-yl)pyrimidine-2,4-diamine] showed a half-life at 5 μM of 40.3 min. Further, in data set [1] (setting [5]), the CLint scaled at 5 μM was 61.6 mL/min/kg. Besides, the IC50 at JAK1 (h) is 2 nM. Besides, the half-life at 5 μM in data set [2] (setting [6]) stood at 83.8 min. Further, the CLint scaled at 5 μM in data set [2] (setting [7]) was 20.8 mL/min/kg. In addition, at JAK2 (h), the IC50 was 5 nM. In addition, in data set [3], the “Clearance (CL) after iv dosing” value came to 45.7 mL/min/kg, the F was 19.1%, the AUC(0-t) came out at 382 ng·h/mL and the half-life is 49.2 min. Also, the Vd in data set [3] amounted to 2.05 L/kg.

With `Cn1cc(Nc2ncc(Cl)c(NC3CC4CN(CC(F)(F)F)CC4C3)n2)cn1` (stereo not shown) [Ex. 35, 5-chloro-N^2-(1-methyl-1H-pyrazol-4-yl)-N^4-(2-(2,2,2-trifluoroethyl)octahydrocyclopenta[c]pyrrol-5-yl)pyrimidine-2,4-diamine], the figures for the half-life at 5 μM in data set [1] (setting [8]) and in data set [2] (setting [10]) were 2.72 min and 6.65 min, respectively. The values for the CLint scaled at 5 μM in data set [1] (setting [9]) and in data set [2] (setting [11]) were 913 mL/min/kg and 261 mL/min/kg, respectively. Moreover, the IC50 was 2 nM on JAK1 (h) and 8 nM at JAK2 (h).

On to `Cc1cc(Nc2ncc(Cl)c(NC3CC4CN(C(=O)CC#N)CC4C3)n2)nn1C` (stereo not shown) [Ex. 39, 3-(5-((5-chloro-2-((1,5-dimethyl-1H-pyrazol-3-yl)amino)pyrimidin-4-yl)amino)hexahydrocyclopenta[c]pyrrol-2(1H)-yl)-3-oxopropanenitrile], for which, in data set [1] (setting [8]), the half-life at 5 μM was 36.9 min. Besides, the CLint scaled at 5 μM in data set [1] (setting [9]) is 67.3 mL/min/kg. Besides, the IC50 on JAK1 (h) stood at 5 nM. This compound also showed a half-life at 5 μM in data set [2] (setting [10]) of 127 min. Further, the intrinsic metabolic clearance (CLint scaled) at 5 μM in data set [2] (setting [11]) was 13.7 mL/min/kg. The 50% inhibitory concentration (IC50) on JAK2 (h) worked out at 30 nM. Also, in data set [3], the “Clearance (CL) after iv dosing” value is 39.8 mL/min/kg, the F was determined as 83.1%, the AUC(0-t) is 422 ng·h/mL and the half-life is 41.4 min. For the same compound, in data set [3], the Vd came out at 1.19 L/kg.

In data set [1] (setting [4]), `Cn1cc(Nc2ncc(Cl)c(NC3CCC4(CC3)CCN(c3ccc(C#N)cn3)CC4)n2)cn1` [Ex. 27, 6-(9-((5-chloro-2-((1-methyl-1H-pyrazol-4-yl)amino)pyrimidin-4-yl)amino)-3-azaspiro[5.5]undecan-3-yl)nicotinonitrile] yielded a half-life at 5 μM of 9.2 min. The CLint scaled at 5 μM in data set [1] (setting [5]) is 270 mL/min/kg. Besides, at JAK1 (h), the IC50 is 4 nM. Besides, the half-life at 5 μM in data set [2] (setting [6]) is 21.8 min. Besides, in data set [2] (setting [7]), the CLint scaled at 5 μM is 79.7 mL/min/kg. Further, the IC50 on JAK2 (h) was 23 nM. Moreover, in data set [3], the “Clearance (CL) after iv dosing” value is 27.8 mL/min/kg, the F worked out at 15.0%, the AUC(0-t) worked out at 452 ng·h/mL and the half-life was 46.2 min. Moreover, in data set [3], the Vd is 1.74 L/kg.

With `Cc1cnc(Nc2cnn(C)c2)nc1NC1CCC2(CC1)CCN(C(=O)CC#N)CC2` [Ex. 25, 3-(9-((5-methyl-2-((1-methyl-1H-pyrazol-4-yl)amino)pyrimidin-4-yl)amino)-3-azaspiro[5.5]undecan-3-yl)-3-oxopropanenitrile], the results for the half-life at 5 μM in data set [1] (setting [4]) and in data set [2] (setting [6]) were 16.8 min and 522 min, respectively. Also, the CLint scaled at 5 μM in data set [1] (setting [5]) was 148 mL/min/kg; in data set [2] (setting [7]) it was 3.33 mL/min/kg. The IC50 at JAK1 (h) was determined as 6 nM; at JAK2 (h) it was 86 nM.

As for `Cn1cc(Nc2ncc(Cl)c(NC3CC4CN(C(=O)C(F)(F)F)CC4C3)n2)cn1` (stereo not shown) [Ex. 34, 1-(5-((5-chloro-2-((1-methyl-1H-pyrazol-4-yl)amino)pyrimidin-4-yl)amino)hexahydrocyclopenta[c]pyrrol-2(1H)-yl)-2,2,2-trifluoroethanone], the half-life at 5 μM in data set [1] (setting [8]) was 2.31 min; in data set [2] (setting [10]), 19 min. Besides, the CLint scaled at 5 μM in data set [1] (setting [9]) is 1080 mL/min/kg; in data set [2] (setting [11]) it was 91.6 mL/min/kg. Also, the results for the IC50 on JAK1 (h) and at JAK2 (h) were 2 nM and 17 nM, respectively.

Consider `Cn1cc(Nc2ncc(Cl)c(NC3CCC4(CCNC4)CC3)n2)cn1` (single isomer, unassigned) [Ex. 13.3A, 5-chloro-N^2-(1-methyl-1H-pyrazol-4-yl)-N^4-(2-azaspiro[4.5]decan-8-yl)pyrimidine-2,4-diamine], for which the results for the IC50 on JAK1 (h) and at JAK2 (h) were 2 nM and 55 nM, respectively.

Regarding `Cn1cc(Nc2ncc(Cl)c(NC3CC4CN(c5ccc(C#N)cn5)CC4C3)n2)cn1` (stereo not shown) [Ex. 33, 6-(5-((5-chloro-2-((1-methyl-1H-pyrazol-4-yl)amino)pyrimidin-4-yl)amino)hexahydrocyclopenta[c]pyrrol-2(1H)-yl)nicotinonitrile], the IC50 at JAK1 (h) stood at 0.4 nM. Besides, at JAK2 (h), the IC50 was determined as 3 nM. Further, in data set [3], the “Clearance (CL) after iv dosing” value turned out to be 24.8 mL/min/kg, the F amounted to 60.4%, the exposure AUC(0-t) turned out to be 702 ng·h/mL and the half-life was 147 min. For the same compound, the Vd in data set [3] turned out to be 3.33 L/kg.

Take `Cn1cnc(Nc2ncc(Cl)c(NC3CCC4(CC3)CCN(C(=O)CC#N)CC4)n2)c1` [Ex. 42, 3-(9-((5-chloro-2-((1-methyl-1H-imidazol-4-yl)amino)pyrimidin-4-yl)amino)-3-azaspiro[5.5]undecan-3-yl)-3-oxopropanenitrile]: the results for the half-life at 5 μM in data set [1] (setting [4]) and in data set [2] (setting [6]) were 31.5 min and 48.9 min, respectively. In addition, the results for the CLint scaled at 5 μM in data set [1] (setting [5]) and in data set [2] (setting [7]) were 78.8 mL/min/kg and 35.6 mL/min/kg, respectively. Further, the IC50 at JAK1 (h) was determined as 3 nM; at JAK2 (h), 12 nM.

Take `Cn1cnc(Nc2ncc(Cl)c(NC3CC4CN(C(=O)CC#N)CC4C3)n2)c1` (stereo not shown) [Ex. 41]: the IC50 on JAK1 (h) is 20 nM; on JAK2 (h) it was 371 nM.
